Reference: patent US20100150844A1, “USE OF 8-QUINOLINOL AND ITS ANALOGS TO TARGET CANCER STEM CELLS” (The Johns Hopkins University, priority 2006, published 2010)
“Also recorded” adds a separate entry of the source. Like-named read-outs stand apart in the source and are kept apart here. Non-standard residues stand in square brackets, D forms with d. Residues, ends and D or L forms follow the SMILES beside them. *: point of attachment. Nle = CCCC[C@H](N)C(=O)O; Cbz = O=C(OCc1ccccc1)*

Legend:
[1] = test system: MCF7 cells; experiment: Cell proliferation assay (MTT), MCF7 parental cells; type: cell-based, human
Description: (§1) FIG. 2. Susceptibility of MCF7 sphere cells to common anticancer drugs compared with MCF7 cells. Single MCF7 and MCF7 sphere cells were inoculated into 96 well plates at a concentration of 5000 cells per well. After overnight culture, cells were subject to selected clinical drug treatment at the indicated dose for three days. Cell proliferation was determined by MTT assay.
(§2) Cell proliferation assay. […] Each concentration was repeated three times.

[2] = test system: MCF7 sphere cells; experiment: Cell proliferation assay (MTT), MCF7 sphere cells; type: cell-based, human
Description: as §1
MCF7 and MCF7 sphere cell culture. Human breast cancer cell line MCF7 cells, MDA-MB-435 cells were obtained from ATCC (American Type Culture Collection). Cells were grown in Dulbecco's Modified Eagle's Medium (DMEM) (Invitrogen) supplemented with 10% fetal bovine serum (FBS) (Invitrogen), 100 units/ml penicillin and 100 ug/ml streptomycin (Invitrogen), in a 37° C. incubator containing 5% CO2. To isolate and culture MCF7 sphere cells, SP cells were sorted based on protocol shown below. Sphere cell culture was performed according to published protocol with modifications^28-30. Briefly, single cells were plated in ultralow attachment plates (Corning, N.Y.) at a density of 20,000 viable cells/mL in primary culture and 1000 cells/mL in passages. Cells were grown in a serum-free mammary epithelial growth medium without bovine pituitary extract (MEGM, BioWhittaker), but supplemented with serum substitute B27 (Invitrogen), 20 ng/mL, Epidermal Growth Factor (EGF), 20 ng/mL, and 20 ng/mL basic fibroblast growth factor (bFGF) (BD Biosciences). In order to passage sphere cells, spheres were collected into 15 ml conic tubes and allowed to settle for 15 minutes. Supernatant was removed. Sphere cells were dissociated enzymatically with 0.05% trypsin, 0.5 mM EDTA (Invitrogen) and mechanically by a glass Pasteur pipette. The cells obtained from dissociation were passed through a 40-μm sieve and analyzed microscopically for single cells and subjected to the experiments below.
as §2

[3] = test system: NF-κB; experiment: Trans-AM NF-κB assay on nuclear extracts of MCF7 sphere cells; type: cell-based, human; settings: 5 μM, 24 hours
Description: (§3) FIGS. 3A-3B. A: Susceptibility of MCF7 and MCF7 sphere cells PI3K pathway inhibitor, rapamycin and NF-κB pathway inhibitors, PTL and PDTC at indicated doses. Experiment was performed as described in FIG. 2 and Materials and Methods. B: Inhibition of NF-κB activity of MCF7 and MCF7 sphere cells after treatment with PTL and PDTC at indicated concentrations. Cells were treated with these compounds at indicated doses for 24 hours. Nuclear extract was prepared from control and treated cells. The quantification of NF-κB activation was performed according to product manual. Nuclear extract preparation. […] After the nuclear lysates were centrifuged, supernatants were collected for quantification of NF-κB activation. The protein concentrations in the supernatants were determined using the BCA protein assay kit (Pierce, Rockford, Ill.). Quantification of NF-κB activation. Trans-AM NF-κB assay, an enzyme-linked immunosorbent assay (ELISA)-based method (Trans-AM NF-κB; Active Motif, Carlsbad, Calif.) was used for NF-κB activity quantification according to the manufacturer's instruction. Briefly, cell nuclear extracts were placed in 96-well plates coated with an oligonucleotide containing the NF-κB consensus sequence, and the presence of active NF-κB was detected by using antibodies specific for p50 subunits that are not complexed to IκB and thus able to bind the consensus sequence. […]

[4] = test system: NF-κB; experiment: Trans-AM NF-κB assay on nuclear extracts of MCF7 cells; type: cell-based; settings: Homo sapiens, 24 hours
Description: as §3

[5] = test system: MDA-MB-435 tumor; experiment: Antitumor activity in nude mouse xenograft model, MDA-MB-435; type: in vivo
Description: (§4) FIGS. 5A-5F. […] Experiment was performed as described in FIG. 3 and Materials and Methods. B: Structure of NSC125034 and 8Q. […] D: In vivo effect of 8Q (4 mg/Kg) by intratumor injection. […] Mice were treated twice weekly for 3 weeks. Tumor sizes were measured weekly. E: In vivo effect of 8Q (20 mg/Kg) by tail vein injection on two different types of breast cancer cell lines, MCF7 (estrogen dependent, xenograft model reflect the early-stage breast malignancy) and MDA-MB435 (estrogen […], xenograft model reflect the later-stage breast malignancy). Mice were treated twice weekly for 4 weeks. (1) MCF7 xenograft (2) MDA-MB435 xenograft. F: Total body weight of individual mouse in the tail vein injection experiment was determined weekly and the average body weight was plotted.
(§5) Antitumor activity in xenograft model. […] Stock solutions of paclitaxel alone, 8-Quinolinol (8Q) alone or in combination with paclitaxel were prepared by dissolving the drugs in a vehicle solution (EtOH:cremophor, 50:50 v/v). Vehicle or paclitaxel alone, 8Q alone and 8Q in combination with paclitaxel stock solution were mixed with saline (10:90 v/v). For intratumor injection, the 8Q dose was 4 mg/kg, given twice weekly for three weeks. […] The tumor volumes were determined by measuring the length (l) and the width (w) and calculating the volume (V=lw^2/2). […]

[6] = test system: MCF7 SP cells; experiment: cells; settings: Homo sapiens, MCF7, read-out: growth inhibition
Description: (§6) To identify and sort SP and non-SP fractions, cells were washed with phosphate buffered saline (PBS) and detached from the culture dish with trypsin and EDTA, pelleted by centrifugation, and resuspended in 37° C. DMEM containing 2% FBS at 1×10^6 cell/ml. Cell staining was performed according to the protocol originally developed by Goodell et al with slight modification^46. […] Following staining, the cells were spun down and resuspended in Hanks'Balanced Salt Solution (HBSS) (Invitrogen) containing 1 μg/ml propidium iodide and maintained at 4° C. for flow cytometry analysis/sorting. Cell analysis and sorting were performed on a MoFlo cytometer (Dako Cytomation, Fort Collins, Colo. USA) equipped with a Coherent Enterprise II laser emitting MLUV at 351 nm and blue 488 nm lines.
(§7) Cell proliferation assay. To test the sensitivity of MCF7 and MCF7 sphere cells to specific compounds, both MCF7 and MCF7 sphere single cells were seeded at 3×10^4 cells/ml in 96-well plates. After overnight incubation, serial concentrations of tested compounds were added. Each concentration was repeated three times. These cells were incubated in a humidified atmosphere with 5% CO2 for 3 days. […] The medium was removed and formazan was dissolved in DMSO and the optical density was measured at 590 nm using a Bio-assay reader (Bio-Rad, USA).

[7] = test system: MCF7 non-SP cells; experiment: cells; settings: Homo sapiens, MCF7, read-out: growth inhibition
Description: as §6, §7

[8] = tail vein, 20 mg/kg, nude mice
Description: as §4, §5

[9] = test system: MCF7 xenograft; settings: tail vein injection, 8Q 20 mg/kg twice weekly for 4 weeks, FIG. 5E(1)
Description: as §4, §5

[10] = in words; solvent DMSO or ethanol
[11] = mouse, U.S. National Toxicology Program acute toxicity studies; cited from earlier work
[12] = rat, U.S. National Toxicology Program acute toxicity studies; cited from earlier work
[13] = comparison sphere versus parental cells, in words

With `S=C(S)N1CCCC1` [PDTC, pyrrolidine dithiocarbamate] the growth inhibition ([1]; 1 uM, MCF7 cells) was “no growth inhibition effects”, the inhibition at 1 µM ([2]; Homo sapiens, 1 uM, MCF7 sphere cells, read-out: growth inhibition) was 50.8% and the “growth inhibition on MCF7 sphere cells compared with MCF7 cells” value (from here on “growth inhibition … compared with MCF7 cells”) [2, 13] was “inhibit MCF7 sphere cells more strongly than the parental MCF7 cells; also recorded: very marked growth inhibition on MCF7 sphere cells compared to MCF7 cells”. For the same molecule, the “decrease of NF-κB activity” value [3] was 61.8% and the inhibition at 5 µM [4] was 33.6%.

With `CC(=O)O[C@H]1C(=O)[C@@]2(C)[C@H]([C@H](OC(=O)c3ccccc3)[C@]3(O)C[C@H](OC(=O)[C@H](O)[C@@H](NC(=O)c4ccccc4)c4ccccc4)C(C)=C1C3(C)C)[C@]1(OC(C)=O)CO[C@@H]1C[C@@H]2O` [paclitaxel] the inhibition at 0.25 µM ([1]; Homo sapiens, 72 h, 0.25 uM, 3 days, MCF7 parental cells, read-out: growth inhibition) was 44.5%, the inhibition at 0.25 µM ([2]; Homo sapiens, 72 h, 0.25 uM, 3 days, MCF7 sphere cells, read-out: growth inhibition) was 6.1% and the tumor growth inhibition ([5]; positive control, paclitaxel 15 mg/kg) was “inhibited the tumor growth as expected”.

With `CC1=C2C[C@H]3[C@@H](CC=C4C[C@@H](O)CC[C@@]43C)[C@@H]2CC[C@]12O[C@@H]1C[C@H](C)CN[C@H]1[C@H]2C` [cyclopamine] the “growth inhibition … compared with MCF7 cells” value [2] was “did not inhibit MCF7 sphere cells more than the MCF7 parental cells; also recorded: no higher growth inhibitor ability on MCF7 sphere cells than MCF7 cells”.

For `Oc1cccc2cccnc12` [8Q, 8-quinolinol], the inhibition at 5 µM ([1]; Homo sapiens, MCF7, 72 h, read-out: growth inhibition) was 30%, the inhibition at 5 µM ([2]; Homo sapiens, 72 h, 5 μM, three day treatment, MCF7 sphere cells, read-out: growth inhibition) was 86% and the “growth inhibition … compared with MCF7 cells” value [2, 13] was “preferentially inhibit the cancer stem cells over bulk cancer cells”. For the same molecule, the inhibition at 5 µM [6] was 84.7%, the inhibition at 5 µM [7] was 71.9% and the “toxicity judged by apparent symptoms and body weight loss” value [8] was “did not show significant toxicity”. The tumor growth inhibition [9] was “significantly inhibited tumor growth”, the tumor growth inhibition ([5]; intratumor injection, 8Q 4 mg/kg twice weekly for 3 weeks, FIG. 5D) was “significantly inhibited tumor growth” and the solubility [10] was “Ethanol soluble”. The “LD50 (oral)” value [11] was 20000 mg/kg and the “LD50 (oral)” value [12] was 1200 mg/kg.

For `CCCC[C@@H](C=O)NC(=O)[C@H](CC(C)C)NC(=O)[C@H](CC(C)C)NC(=O)OCc1ccccc1` [GSI1] (Cbz-Leu-Leu-[Nle]-aldehyde), the “growth inhibition … compared with MCF7 cells” value [2, 13] was “did not inhibit MCF7 sphere cells more than the MCF7 parental cells; also recorded: no higher growth inhibitor ability on MCF7 sphere cells than MCF7 cells”.

B1: DKK1: Wnt pathway inhibitor (protein, UniProt O94907 32-266, looked up)
Dickkopf-related protein 1: TLNSVLNSNAIKNLPPPLGGAAGHPGSAVSAAPGILYPGGNKYQTIDNYQPYPCAEDEECGTDEYCASPTRGGDAGVQICLACRKRRKRCMRHAMCCPGNYCKNGICVSSDQNHFRGEIEETITESFGNDHSTLDGYSRRTTLSSKMYHTKGQEGSVCLRSSDCASGLCCARHFWSKICKPVLKEGQVCTKHRRKGSHGLEIFQRCYCGEGLSCRIQKDHHQASNSSRLHTCQRH
With B1 the “growth inhibition … compared with MCF7 cells” value [2, 13] was “no higher growth inhibitor ability on MCF7 sphere cells than MCF7 cells” and the “growth inhibition … compared with MCF7 cells” value ([2]; comparison sphere versus parental cells, in words, listed as DKKI) was “did not inhibit MCF7 sphere cells more than the MCF7 parental cells”.
